{"source": "patent US20240100121A1", "about": "“COMPOSITIONS OF A BETA-HAIRPIN PEPTIDOMIMETIC AND AEROSOL DOSAGE FORMS THEREOF” (priority 2020, published 2024)", "key": {"[1]": {"test_system": "Pseudomonas aeruginosa biofilms (PAO, PAO mutS, PA34, PA40)", "experiment": "Biofilm assays performed by the BioFlux microfluidic open system", "type": "cell-based", "details": "both open and closed biofilm-testing systems", "source_text": "Two types of assays, an open and a closed system, were used to evaluate the in vitro activity on biofilms. The closed or static system based on the Calgary device (Diez-Aguilar M et al., Antimicrob Agents Chemother. 2018, 62, e01650-17, doi: 10.1128/AAC.01650-17, Moskowitz S M et al., J. Clin. Microbiol. 2004, 42, 1915-1922) analyzes biofilm formation in the wells of microtiter plates and is suitable for high-throughput analysis, obtaining pharmacodynamics (PD) parameters, while the open or dynamic system using the BioFlux device (Benoit M R et al., Appl. Environ. Microbiol. 2010, 76, 4136-4142) better resembles the in vivo conditions. […]\nSeveral biofilms were simultaneously developed in a 48 wells plate in the BioFlux 200 system, following an adapted protocol from Benoit M R et al. (Appl. Environ. Microbiol. 2010, 76, 4136-4142). […] Biofilm images were taken using a Nikon Eclipse Ti microscope (Nikon, Tokyo, Japan) and analyzed with the ImageJ program (Java-based image processing program, National Institute of Health, Bethesda, Maryland, USA and Laboratory for Optical and Computational Instrumentation, University of Wisconsin, Wisconsin, USA). The mean percentage of intensity of red fluorescence corresponding to dead cells within the biofilm is represented in a bar chart as black bar (FIG. 4). […]"}, "PA34 (smooth phenotype) [2]": {"test_system": "PA34 (smooth phenotype)", "experiment": "microbe, parasite or virus in culture", "type": "cell-based, Pseudomonas aeruginosa", "protocol": "(§1) Two CF isolates, PA34 (smooth phenotype) and PA40 (mucoid phenotype), and the 2 reference strains PAO and PAO mutS were tested with the BioFlux device. None of the clinical strains were hypermutators.\n(§2) Planktonic and biofilm susceptibility of the strains established in the Calgary device and used in the BioFlux device are described in Table 12."}, "PA40 (mucoid phenotype) [3]": {"test_system": "PA40 (mucoid phenotype)", "experiment": "microbe, parasite or virus in culture", "type": "cell-based, Pseudomonas aeruginosa", "protocol": "as §1, §2"}, "PAO [4]": {"test_system": "PAO", "experiment": "microbe, parasite or virus in culture", "type": "cell-based, Pseudomonas aeruginosa", "protocol": "as §1, §2"}, "[5]": {"test_system": "clinical Pseudomonas aeruginosa isolates", "experiment": "Mouse lung infection model (PK-PD)", "type": "in vivo"}, "[6]": {"experiment": "28-day dose inhalation study in CD-1 mice", "type": "in vivo", "protocol": "(§3) In the 28-day dose inhalation study in CD-1 mice (20-minute snout only exposure), the mean estimated achieved doses of 0.8, 3.5 and 7.2 mg/kg/day murepavadin free base were administered. […] There were no other findings considered test item related."}, "[7]": {"test_system": "Pseudomonas aeruginosa isolates from respiratory samples of people with cystic fibrosis growing in biofilms", "type": "cell-based", "source_text": "Two types of assays, an open and a closed system, were used to evaluate the in vitro activity on biofilms. The closed or static system based on the Calgary device (Diez-Aguilar M et al., Antimicrob Agents Chemother. 2018, 62, e01650-17, doi: 10.1128/AAC.01650-17, Moskowitz S M et al., J. Clin. Microbiol. 2004, 42, 1915-1922) analyzes biofilm formation in the wells of microtiter plates and is suitable for high-throughput analysis, obtaining pharmacodynamics (PD) parameters, while the open or dynamic system using the BioFlux device (Benoit M R et al., Appl. Environ. Microbiol. 2010, 76, 4136-4142) better resembles the in vivo conditions.\n(§4) To perform biofilm tests with the Calgary device, fifty-three Pseudomonas aeruginosa isolates from respiratory samples of people with cystic fibrosis were selected among the 414 Pseudomonas aeruginosa of the iABC-collection (Ekkelenkamp M B et al., Antimicrob. Agents Chemother. 2019, 64, 1-7). A representative number of isolates from Northern Ireland, Spain, the Netherlands, and Australia were chosen, including different morphotyes: 18 smooth, 11 mucoid, 11 rough, 10 metallic, and 3 small colony variants. As control strains, the PAO (most commonly used strain for research on this ubiquitous and metabolically versatile opportunistic pathogen, Klockgether J et al., Journal of Bacteriology 2010, 192, 1113-1121) and its hypermutator derivative, PAO mutS strains were used (Oliver A et al., Antimicrob. Agents Chemother. 2004, 48, 4226-33).\n(§5) This assay was performed as previously described but with minimal variations (Benoit M R et al., Appl. Environ. Microbiol. 2010, 76, 4136-4142) (FIG. 3). Briefly, a 0.5 McFarland culture was transferred to a flat-bottom 96-well microtiter plate (Nalge Nunc International, Rochester, New York, USA). Bacterial biofilm was formed around the pegs of a modified polystyrene microtiter lid. This lid with pegs was immersed into a growth plate and incubated for 20 h at 37° C. After rinsing the pegs 3 times in saline solution they were placed onto the antimicrobial in BBL™ Mueller-Hinton II cation-adjusted broth (MHB) (Becton, Dickinson and Company, Sparks, MD, USA) and incubated for 20 h at 37° C. […] After this incubation, the biofilm was recovered centrifuging (800 RPM/10 min) the peg lid in an antibiotic-free MHB filled-microtiter plate. The minimal biofilm inhibitory concentration (MBIC) was calculated after measuring the optical density (OD) (450 nm) before and after 6-hour incubation. Biofilm growth was defined as a mean OD difference of ≥0.05. […] The minimal biofilm eradication concentration (MBEC) was defined as the lowest concentration that prevents visible growth in the biofilm recovery medium after 18 h of the microtiter plate incubation (Ceri H et al., J. Clin. Microbiol. 1999, 37, 1771; Macià M D et al., Enferm. Infecc. Microbiol. Clin. 2018, 36, 375-381).\nMBIC and the MBEC are used to determine the anti-biofilm antibiotic in vitro efficacy. MBIC is the lowest concentration at which there is no time-dependent increase in the mean number of biofilm viable cells comparing an early with a later exposure time, while the MBEC indicates the eradication (partly or completely) of biofilm viable cells (Thieme L et al., Biol. Proced. Online 2019, 21, 1-5)."}, "PA34 (smooth phenotype) [8]": {"test_system": "PA34 (smooth phenotype)", "type": "cell-based, Pseudomonas aeruginosa", "protocol": "as §1, §5, §2"}, "PA40 (mucoid phenotype) [9]": {"test_system": "PA40 (mucoid phenotype)", "type": "cell-based, Pseudomonas aeruginosa", "protocol": "as §1, §5, §2"}, "PAO mutS": {"test_system": "PAO mutS", "type": "cell-based, Pseudomonas aeruginosa", "protocol": "as §1, §5, §2"}, "PAO [10]": {"test_system": "PAO", "type": "cell-based, Pseudomonas aeruginosa", "protocol": "as §1, §5, §2"}, "[11]": {"test_system": "Pseudomonas aeruginosa isolates from respiratory samples of people with cystic fibrosis", "experiment": "Planktonic susceptibility (MIC) of CF isolates", "type": "cell-based", "source_text": "as §4"}, "[12]": {"set-up": "species or system cynomolgus monkeys", "details": "cynomolgus monkey, in vivo", "protocol": "as §3"}, "[13]": {"test_system": "PAO, PAO mutS, PA40, PA34", "experiment": "Planktonic susceptibility of all strains used in the BioFlux device", "type": "cell-based, Pseudomonas aeruginosa", "details": "all tested strains susceptible", "protocol": "as §1, §2"}, "[14]": {"details": "biofilm, Calgary device, CF isolates"}}, "note": "Where a SMILES comes first, the peptide text is derived from it. [ ]: non-standard residue; d: D form. dDab = NCC[C@@H](N)C(=O)O; Orn = NCCC[C@H](N)C(=O)O; Dab = NCC[C@H](N)C(=O)O", "data": [{"molecule": "CC[C@H](C)[C@@H]1NC(=O)[C@H](Cc2c[nH]c3ccccc23)NC(=O)[C@H]([C@@H](C)O)NC(=O)[C@@H]2CCCN2C(=O)[C@H]2CCCN2C(=O)[C@H](CO)NC(=O)[C@H](C)NC(=O)[C@H](CCN)NC(=O)[C@H](CCN)NC(=O)[C@H](Cc2c[nH]c3ccccc23)NC(=O)[C@H](CCN)NC(=O)[C@@H](CCN)NC(=O)[C@H](CCCN)NC(=O)[C@H](CCN)NC1=O", "note": "[murepavadin, cyclo(-Thr-Trp-Ile-Dab-Orn-^DDab-Dab-Trp-Dab-Dab-Ala-Ser-^DPro-Pro-)] (cyclo(TWI[Dab][Orn][dDab][Dab]W[Dab][Dab]AS[dP]P); ring closure inferred)", "values": [{"measurement": "activity against biofilms of Pseudomonas aeruginosa", "setting": "[1]", "value": "displayed activity"}, {"measurement": "MIC", "setting": "PA34 (smooth phenotype) [2]", "value": 0.06, "unit": "mg/L"}, {"measurement": "MIC", "setting": "PA40 (mucoid phenotype) [3]", "value": 0.06, "unit": "mg/L"}, {"measurement": "MIC", "setting": "PAO [4]", "value": 0.06, "unit": "mg/L"}, {"measurement": "reduction of bacterial burden", "setting": "[5]; IT doses of 0.075-0.625 mg/kg, three out of four clinical isolates", "value": "> 2", "unit": "log10"}, {"measurement": "achieved dose required to attain the ELF AUC exposure", "setting": "[5]; inhalation administration", "value": 0.18, "unit": "mg/kg"}, {"measurement": "achieved dose required to attain the ELF AUC exposure", "setting": "[5]; intra-tracheal (i.t.) administration", "value": 0.10, "unit": "mg/kg"}, {"measurement": "mean AUC exposure in ELF sufficient to achieve a 1-login reduction of bacterial burden", "setting": "[5]; subcutaneous injection, 15 clinical Pseudomonas aeruginosa isolates", "value": 12.23, "unit": "h·mg/L"}, {"measurement": "No Observed Adverse Effect Level (NOAEL)", "setting": "[6]; 28-day inhalation, 0.8, 3.5 and 7.2 mg/kg/day, adverse pathology in the upper respiratory tract", "value": "no No Observed Adverse Effect Level (NOAEL) could be established"}, {"measurement": "systemic toxicity", "setting": "[6]; 28-day inhalation, 20-minute snout only exposure, up to 7.2 mg/kg/day murepavadin free base", "value": "no evidence of systemic toxicity"}, {"measurement": "MBEC50", "setting": "[7]", "value": 16, "unit": "mg/L"}, {"measurement": "MBEC90", "setting": "[7]; [14]", "value": 64, "unit": "mg/L"}, {"measurement": "MBIC50", "setting": "[7]; [14]", "value": 4, "unit": "mg/L"}, {"measurement": "MBIC90", "setting": "[7]; [14]", "value": 32, "unit": "mg/L"}, {"measurement": "MBIC range", "setting": "[7]; [14]", "value": "≤0.5 to 64", "unit": "mg/L"}, {"measurement": "MBEC", "setting": "PA34 (smooth phenotype) [8]", "value": 4, "unit": "mg/L"}, {"measurement": "MBIC", "setting": "PA34 (smooth phenotype) [8]", "value": 2, "unit": "mg/L"}, {"measurement": "MBEC", "setting": "PA40 (mucoid phenotype) [9]", "value": 8, "unit": "mg/L"}, {"measurement": "MBIC", "setting": "PA40 (mucoid phenotype) [9]", "value": 2, "unit": "mg/L"}, {"measurement": "MBEC", "setting": "PAO mutS", "value": 256, "unit": "mg/L"}, {"measurement": "MBIC", "setting": "PAO mutS", "value": 32, "unit": "mg/L"}, {"measurement": "MBEC", "setting": "PAO [10]", "value": 8, "unit": "mg/L"}, {"measurement": "MBIC", "setting": "PAO [10]", "value": 4, "unit": "mg/L"}, {"measurement": "MIC50", "setting": "[11]", "value": "≤ 0.5", "unit": "mg/L"}, {"measurement": "MIC90", "setting": "[11]", "value": 1, "unit": "mg/L"}, {"measurement": "MIC range", "setting": "[11]", "value": "≤0.5 to 32", "unit": "mg/L"}, {"measurement": "microscopic test item related findings at the tracheal bifurcation", "setting": "[12]", "value": "not considered adverse"}, {"measurement": "MIC", "setting": "[13]", "value": 0.12, "unit": "mg/L"}]}]}
